This experiment concerns the target T1, human PD-1 (Jurkat-PD-1 cells) / PE-labeled human PD-L1-Ig (Homo sapiens, UniProt Q15116).
T1 construct: expressed in transfected cells; host or cells: Jurkat cell line over-expressing human PD-1
The experiment can be described thus: Jurkat-PD-1 Cell Binding High-Content Screening Assay (CBA); Jurkat hPD1-PDL1 assay. To be noted: Jurkat cell line over-expressing human PD-1; PE-labeled PD-L1-Ig 20 nM final; compound incubated 2 hours at 37° C.; read-out: Jurkat HPD1-PDL1 IC50. The protocol:
The ability of the compounds of formula (I) to bind to PD-1 was investigated using a Jurkat-PD-1 Cell Binding High-Content Screening Assay.
Jurkat-PD-1 Cell Binding High-Content Screening Assay (CBA)
Phycoerythrin (PE) was covalently linked to the Ig epitope tag of human PD-L1-Ig and fluorescently-labeled PD-L1-Ig was used for binding studies with a Jurkat cell line over-expressing human PD-1 (Jurkat-PD-1). Briefly, 8×10^3 Jurkat-hPD-1 cells were seeded into 384 well plates in 20 μL of DMEM supplemented with 10% fetal calf serum. 100 nL of compound was added to cells followed by incubation at 37° C. for 2 hours. Then, 5 μL of PE-labeled PD-L1-Ig (20 nM final), diluted in DMEM supplemented with 10% fetal calf serum. […] Data was collected and processed using a Cell Insight NXT High Content Imager and associated software.

Structures are written as SMILES. Positions of bridges follow the written chain, without caps; N, C: chain ends. Non-standard residues stand in square brackets, D forms with d. Residues, ends and D or L forms follow the SMILES beside them. ξ: configuration not given here. Phe(4-COOH) = N[C@@H](Cc1ccc(C(=O)O)cc1)C(=O)O; Phe(4-CH2NH2) = NCc1ccc(C[C@H](N)C(=O)O)cc1; Bip = N[C@@H](Cc1ccc(-c2ccccc2)cc1)C(=O)O; Phe(3-F) = N[C@@H](Cc1cccc(F)c1)C(=O)O; Val(3-OH) = CC(C)(O)[C@H](N)C(=O)O; NMeF = CN[C@@H](Cc1ccccc1)C(=O)O; 3Pal = N[C@@H](Cc1cccnc1)C(=O)O; 4Pal = N[C@@H](Cc1ccncc1)C(=O)O; Cha = N[C@@H](CC1CCCCC1)C(=O)O; dPip = O=C(O)[C@H]1CCCCN1; hSer = N[C@@H](CCO)C(=O)O; ξR = N=C(N)NCCCC(N)C(=O)O; NMeA = CN[C@@H](C)C(=O)O; Orn = NCCC[C@H](N)C(=O)O; Dab = NCC[C@H](N)C(=O)O; Sar = CNCC(=O)O

The source of these data is patent US20240360178A1, “MACROCYCLIC IMMUNOMODULATORS” (Bristol-Myers Squibb Company, priority 2021, published 2024).

T1 sequence (Q15116 25-288): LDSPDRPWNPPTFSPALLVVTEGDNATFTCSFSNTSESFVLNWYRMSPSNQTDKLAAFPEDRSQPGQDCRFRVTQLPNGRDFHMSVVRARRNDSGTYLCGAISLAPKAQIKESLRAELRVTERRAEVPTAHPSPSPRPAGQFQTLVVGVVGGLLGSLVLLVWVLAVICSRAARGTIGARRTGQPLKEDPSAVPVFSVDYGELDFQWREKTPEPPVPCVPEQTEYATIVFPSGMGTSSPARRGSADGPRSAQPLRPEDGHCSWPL

For `CC(C)C[C@@H]1NC(=O)[C@H](Cc2c[nH]c3ccccc23)NC(=O)[C@H](CC(=O)O)NC(=O)[C@H](Cc2cccc(F)c2)NC(=O)[C@H](Cc2ccccc2)NC(=O)CSC[C@@H](C(=O)N[C@@H](C)C(N)=O)NC(=O)[C@H](CO)NC(=O)[C@H](C(C)C)NC(=O)[C@H](CC(C)C)NC(=O)[C@H](CC(N)=O)NC(=O)[C@H]2CCCN2C(=O)[C@H](C)N(C)C(=O)[C@H](C(C)C)NC(=O)[C@H](Cc2ccc(-c3ccccc3)cc2)NC1=O` [Example 1047] ({CH2CO}-F[Phe(3-F)]DWL[Bip]V[NMeA][dP]NLVSCA-NH2; thioether N-14), the IC50 – broadly, the point on the concentration scale where inhibition reaches its midpoint – was determined as 90 nM.

For the compound `CC(C)C[C@@H]1NC(=O)[C@H](CCCNC(=N)N)NC(=O)[C@H](Cc2ccccc2)N(C)C(=O)[C@H]2CCCN2C(=O)[C@H](CCCNC(=N)N)NC(=O)[C@H](Cc2ccc(-c3ccccc3)cc2)NC(=O)[C@H](C(C)C)NC(=O)[C@H](Cc2c[nH]c3ccccc23)NC(=O)[C@H](CC(=O)O)NC(=O)[C@H](Cc2ccc(O)cc2)NC(=O)[C@H](CC(N)=O)NC(=O)CSC[C@@H](C(=O)N[C@@H](C)C(N)=O)NC(=O)[C@H]([C@@H](C)O)NC(=O)[C@H](C(C)C)NC1=O` [Example 1362] ({CH2CO}-NYDWV[Bip]R[dP][NMeF]RLVTCA-NH2; thioether N-14), the IC50 amounted to 190 nM.

Consider `CC(C)C[C@@H]1NC(=O)[C@H](CCCNC(=N)N)NC(=O)[C@H](Cc2ccccc2)N(C)C(=O)[C@H](C)N(C)C(=O)[C@H](CCCNC(=N)N)NC(=O)[C@H](Cc2ccc(-c3ccccc3)cc2)NC(=O)[C@H](C(C)C)NC(=O)[C@H](Cc2c[nH]c3ccccc23)NC(=O)[C@H](CC(=O)O)NC(=O)[C@H](Cc2ccc(O)cc2)NC(=O)[C@H](Cc2ccccc2)NC(=O)CSC[C@@H](C(=O)N[C@@H](C)C(N)=O)NC(=O)[C@H](CO)NC(=O)[C@H](C(C)C)NC1=O` [Example 1074] ({CH2CO}-FYDWV[Bip]R[NMeA][NMeF]RLVSCA-NH2; thioether N-14), for which the IC50 came out at 190 nM.

In the case of `COCC[C@@H]1NC(=O)[C@H](C(C)C)NC(=O)[C@H](CC(C)C)NC(=O)[C@H](CCCNC(=N)N)NC(=O)[C@H](Cc2ccccc2)N(C)C(=O)[C@H](C)N(C)C(=O)[C@H](CCCNC(=N)N)NC(=O)[C@H](Cc2ccc(-c3ccccc3)cc2)NC(=O)[C@H](C(C)C)NC(=O)[C@H](Cc2c[nH]c3ccccc23)NC(=O)[C@H](CC(=O)O)NC(=O)[C@H](Cc2ccc(O)cc2)NC(=O)[C@H](Cc2ccccc2)NC(=O)CSC[C@@H](C(=O)NCC(N)=O)NC1=O` [Example 1259] ({CH2CO}-FYDWV[Bip]R[NMeA][NMeF]RLV[hSer](Me)CG-NH2; thioether N-14), the IC50 was 260 nM.

As to `CC(C)C[C@@H]1NC(=O)C(CCCNC(=N)N)NC(=O)[C@H](Cc2ccccc2)N(C)C(=O)[C@H](C)N(C)C(=O)[C@H](CCCNC(=N)N)NC(=O)[C@H](Cc2ccc(-c3ccccc3)cc2)NC(=O)[C@H](C(C)C)NC(=O)[C@H](Cc2c[nH]c3ccccc23)NC(=O)[C@H](CC(=O)O)NC(=O)[C@H](Cc2ccc(O)cc2)NC(=O)[C@H](Cc2ccccc2)NC(=O)CSC[C@@H](C(=O)NCC(N)=O)NC(=O)[C@H](CCC(=O)O)NC(=O)[C@H](C(C)C)NC1=O` (some centres unmarked) [Example 1219] ({CH2CO}-FYDWV[Bip]R[NMeA][NMeF][ξR]LVECG-NH2; thioether N-14), the IC50 was 610 nM.

Turning to `CC(C)C[C@@H]1NC(=O)[C@H](Cc2c[nH]c3ccccc23)NC(=O)[C@H](CC(=O)O)NC(=O)[C@H](Cc2ccc(O)cc2)NC(=O)[C@H](Cc2ccncc2)NC(=O)CSC[C@@H](C(=O)NCC(N)=O)NC(=O)[C@H](CO)NC(=O)[C@H](C(C)C)NC(=O)[C@H](CC(C)C)NC(=O)[C@H](CC(N)=O)NC(=O)CN(C)C(=O)[C@H](C)N(C)C(=O)[C@H](C(C)C)NC(=O)[C@H](Cc2ccc(-c3ccccc3)cc2)NC1=O` [Example 1107] ({CH2CO}-[4Pal]YDWL[Bip]V[NMeA][Sar]NLVSCG-NH2; thioether N-14), the IC50 came to 340 nM.

Regarding `CC(C)C[C@@H]1NC(=O)[C@H](CCCNC(=N)N)NC(=O)[C@H](Cc2ccccc2)N(C)C(=O)[C@@H](CCCCN)NC(=O)[C@H](CCCNC(=N)N)NC(=O)[C@H](Cc2ccc(-c3ccccc3)cc2)NC(=O)[C@H](C(C)C)NC(=O)[C@H](Cc2c[nH]c3ccccc23)NC(=O)[C@H](CC(=O)O)NC(=O)[C@H](Cc2ccc(O)cc2)NC(=O)[C@H](CC(N)=O)NC(=O)CSC[C@@H](C(=O)N[C@@H](C)C(N)=O)NC(=O)[C@H]([C@@H](C)O)NC(=O)[C@H](C(C)C)NC1=O` [Example 1369] ({CH2CO}-NYDWV[Bip]R[dK][NMeF]RLVTCA-NH2; thioether N-14), the IC50 stood at 330 nM.

As for `CC(C)C[C@@H]1NC(=O)[C@H](Cc2c[nH]c3ccccc23)NC(=O)[C@H](CC(=O)O)NC(=O)[C@H](Cc2ccc(O)cc2)NC(=O)[C@H](CC(N)=O)NC(=O)CSC[C@@H](C(=O)N[C@@H](C)C(N)=O)NC(=O)[C@H](CO)NC(=O)[C@H](C(C)C)NC(=O)[C@H](CC(C)C)NC(=O)[C@H](CC(N)=O)NC(=O)[C@H]2CCCN2C(=O)[C@H](CCCN)NC(=O)[C@H](C(C)C)NC(=O)[C@H](Cc2ccc(-c3ccccc3)cc2)NC1=O` [Example 1425] ({CH2CO}-NYDWL[Bip]V[Orn][dP]NLVSCA-NH2; thioether N-14), the IC50 came out at 190 nM.

For the compound `CC(C)C[C@@H]1NC(=O)[C@H](CC(C)C)NC(=O)[C@H](CCCNC(=N)N)NC(=O)[C@H](Cc2ccccc2)N(C)C(=O)[C@H](C)N(C)C(=O)[C@H](CCCNC(=N)N)NC(=O)[C@H](Cc2ccc(-c3ccccc3)cc2)NC(=O)[C@H](C(C)C)NC(=O)[C@H](Cc2c[nH]c3ccccc23)NC(=O)[C@H](CC(=O)O)NC(=O)[C@H](Cc2ccc(O)cc2)NC(=O)[C@H](Cc2ccccc2)NC(=O)CSC[C@@H](C(=O)NCC(N)=O)NC(=O)[C@H](CO)NC1=O` [Example 1325] ({CH2CO}-FYDWV[Bip]R[NMeA][NMeF]RLLSCG-NH2; thioether N-14), the concentration for half-maximal inhibition (IC50) is 590 nM.

In the case of `CC(C)C[C@@H]1NC(=O)[C@H](CCCNC(=N)N)NC(=O)[C@H](Cc2ccccc2)N(C)C(=O)[C@H](C)N(C)C(=O)[C@H](CCCNC(=N)N)NC(=O)[C@H](Cc2ccc(-c3ccccc3)cc2)NC(=O)[C@H](C(C)C)NC(=O)[C@H](Cc2c[nH]c3ccccc23)NC(=O)[C@H](CC(=O)O)NC(=O)[C@H](Cc2ccc(C(=O)O)cc2)NC(=O)[C@H](CCC(N)=O)NC(=O)CSC[C@@H](C(=O)NCC(N)=O)NC(=O)[C@H](CO)NC(=O)[C@H](C(C)C)NC1=O` [Example 1297] ({CH2CO}-Q[Phe(4-COOH)]DWV[Bip]R[NMeA][NMeF]RLVSCG-NH2; thioether N-14), the IC50 was 420 nM.

As to `CC(C)C[C@@H]1NC(=O)[C@H](CCN)NC(=O)[C@H](Cc2ccccc2)N(C)C(=O)[C@H](C)N(C)C(=O)[C@H](CCCNC(=N)N)NC(=O)[C@H](Cc2ccc(-c3ccccc3)cc2)NC(=O)[C@H](C(C)C)NC(=O)[C@H](Cc2c[nH]c3ccccc23)NC(=O)[C@H](CC(=O)O)NC(=O)[C@H](Cc2ccc(O)cc2)NC(=O)[C@H](Cc2cccnc2)NC(=O)CSC[C@@H](C(=O)N[C@@H](C)C(N)=O)NC(=O)[C@H](CO)NC(=O)[C@H](C(C)C)NC1=O` [Example 1306] ({CH2CO}-[3Pal]YDWV[Bip]R[NMeA][NMeF][Dab]LVSCA-NH2; thioether N-14), the IC50 is 460 nM.

On to `COc1ccc(C[C@@H]2NC(=O)[C@H](Cc3ccccc3)NC(=O)CSC[C@@H](C(=O)N[C@@H](C)C(N)=O)NC(=O)[C@H](CO)NC(=O)[C@H](C(C)C)NC(=O)[C@H](CC(C)C)NC(=O)[C@H](CC(N)=O)NC(=O)CN(C)C(=O)[C@H](C)N(C)C(=O)[C@H](C(C)C)NC(=O)[C@H](Cc3ccc(-c4ccccc4)cc3)NC(=O)[C@H](CC(C)C)NC(=O)[C@H](Cc3c[nH]c4ccccc34)NC(=O)[C@H](CC(=O)O)NC2=O)cc1` [Example 1139] ({CH2CO}-FY(Me)DWL[Bip]V[NMeA][Sar]NLVSCA-NH2; thioether N-14), for which the IC50 amounted to 590 nM.

For the compound `CC(C)C[C@@H]1NC(=O)[C@H](CCCNC(=N)N)NC(=O)[C@H](Cc2ccccc2)N(C)C(=O)[C@H](C)N(C)C(=O)[C@H](CCCNC(=N)N)NC(=O)[C@H](Cc2ccc(-c3ccccc3)cc2)NC(=O)[C@H](C(C)C)NC(=O)[C@H](Cc2c[nH]c3ccccc23)NC(=O)[C@H](CC(=O)O)NC(=O)[C@H](Cc2ccc(CN)cc2)NC(=O)[C@H](Cc2ccccc2)NC(=O)CSC[C@@H](C(=O)NCC(N)=O)NC(=O)[C@H](CO)NC(=O)[C@H](C(C)C)NC1=O` [Example 1277] ({CH2CO}-F[Phe(4-CH2NH2)]DWV[Bip]R[NMeA][NMeF]RLVSCG-NH2; thioether N-14), the IC50 came to 140 nM.

For `CC(C)C[C@@H]1NC(=O)[C@H](Cc2c[nH]c3ccccc23)NC(=O)[C@H](CC(=O)O)NC(=O)[C@H](Cc2ccc(C(=O)O)cc2)NC(=O)[C@H](Cc2ccncc2)NC(=O)CSC[C@@H](C(=O)N[C@@H](CCN)C(N)=O)NC(=O)[C@H](CO)NC(=O)[C@H](C(C)(C)O)NC(=O)[C@H](CC2CCCCC2)NC(=O)[C@H](CCN)NC(=O)[C@H]2CCCCN2C(=O)[C@H]2CCCN2C(=O)[C@H](C(C)C)NC(=O)[C@H](Cc2ccc(-c3ccccc3)cc2)NC1=O` [Example 1189] ({CH2CO}-[4Pal][Phe(4-COOH)]DWL[Bip]V[dP][dPip][Dab][Cha][Val(3-OH)]SC[Dab]-NH2; thioether N-14), the IC50 was 70 nM.
